Laboratory results from patent US11065265B2, “Compositions of fosaprepitant and methods of preparation” (SPES PHARMACEUTICALS INC., priority 2018, dated 2021).

Experiments:
[1] = cited from earlier work
[2] = Solubility enhancing effect of cyclodextrin derivative on aprepitant in aqueous medium; assay type: physicochemical

- Increase in Aprepitant Solubility ([2]; Cyclodextrin Derivative 0 mg/mL): 0%
- Increase in Aprepitant Solubility ([2]; Cyclodextrin Derivative 32 mg/mL): 105%
- Increase in Aprepitant Solubility ([2]; Cyclodextrin Derivative 64 mg/mL): 300%
- Increase in Aprepitant Solubility ([2]; Cyclodextrin Derivative 128 mg/mL): 748%
- Increase in Aprepitant Solubility ([2]; Cyclodextrin Derivative 160 mg/mL): 1039%
- Increase in Aprepitant Solubility ([2]; Cyclodextrin Derivative 180 mg/mL): 1244%
- Increase in Aprepitant Solubility ([2]; Cyclodextrin Derivative 200 mg/mL): 1322%
- Increase in Aprepitant Solubility ([2]; Cyclodextrin Derivative 255 mg/mL): 1717%
Structure (SMILES): C[C@@H](O[C@H]1OCCN(Cc2n[nH]c(=O)[nH]2)[C@H]1c1ccc(F)cc1)c1cc(C(F)(F)F)cc(C(F)(F)F)c1 [Aprepitant]
- solubility in non-polar solvents such as oils ([1]; non-polar solvents such as oils): reasonably high
- solubility in water ([1]; water): very limited
